Measured values from BindingDB's records for doi:10.7270/Q2MK6B9H (Nmmlsc, 2009).

Target: Ras-related protein Rab-7a (Canis lupus familiaris, UniProt P18067)
Assay: inhibition of fluorescent GTP loading on Rab7 – biochemical, dog Rab7, bead multiplex flow cytometry, Bodipy-FL-GTP, pyrazoline series, SAR follow-up (AID 2041)

Sequence of Ras-related protein Rab-7a (P18067 whole entry): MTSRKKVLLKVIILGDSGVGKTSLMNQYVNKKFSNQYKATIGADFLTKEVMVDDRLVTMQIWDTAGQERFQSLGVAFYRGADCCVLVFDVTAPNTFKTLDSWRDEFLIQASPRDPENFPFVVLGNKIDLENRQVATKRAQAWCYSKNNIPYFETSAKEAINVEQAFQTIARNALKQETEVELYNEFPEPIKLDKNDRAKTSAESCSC

SMILES: COc1ccc(C2CC(c3ccccc3)=NN2c2cccc(S(N)(=O)=O)c2)cc1 (stereo not drawn) [3-[3-(4-methoxyphenyl)-5-phenyl-3,4-dihydropyrazol-2-yl]benzenesulfonamide]
- EC50: > 30 µM

SMILES: CN(C)c1ccc(C2CC(c3ccccc3)=NN2c2ccccc2)cc1 (stereo not drawn) [4-(2,5-diphenyl-3,4-dihydropyrazol-3-yl)-N,N-dimethylaniline]
- EC50: > 30 µM

SMILES: NS(=O)(=O)c1ccc(N2N=C(c3ccccc3)CC2c2ccccc2)cc1 (stereo not drawn) [4-(3,5-diphenyl-3,4-dihydropyrazol-2-yl)benzenesulfonamide]
- EC50: > 30 µM

SMILES: COc1ccc(C2=NN(c3ccc(S(N)(=O)=O)cc3)C(c3ccc(OC)cc3)C2)cc1 (stereo not drawn) [4-[3,5-bis(4-methoxyphenyl)-3,4-dihydropyrazol-2-yl]benzenesulfonamide]
- EC50: > 30 µM

SMILES: NS(=O)(=O)c1ccc(N2N=C(c3ccccc3)CC2c2ccccc2Br)cc1 (stereo not drawn) [4-[3-(2-bromophenyl)-5-phenyl-3,4-dihydropyrazol-2-yl]benzenesulfonamide]
- EC50: > 30 µM

SMILES: COc1ccccc1C1CC(c2ccccc2)=NN1c1ccc(S(N)(=O)=O)cc1 (stereo not drawn) [4-[3-(2-methoxyphenyl)-5-phenyl-3,4-dihydropyrazol-2-yl]benzenesulfonamide]
- EC50: > 30 µM

SMILES: COc1cccc(C2CC(c3ccccc3)=NN2c2ccc(S(N)(=O)=O)cc2)c1 (stereo not drawn) [4-[3-(3-methoxyphenyl)-5-phenyl-3,4-dihydropyrazol-2-yl]benzenesulfonamide]
- EC50: > 30 µM

SMILES: NS(=O)(=O)c1ccc(N2N=C(c3ccccc3)CC2c2ccc(Cl)cc2)cc1 (stereo not drawn) [4-[3-(4-chlorophenyl)-5-phenyl-3,4-dihydropyrazol-2-yl]benzenesulfonamide]
- EC50: > 30 µM

SMILES: COc1ccc(C2CC(c3ccc(C(F)(F)F)cc3)=NN2c2ccc(S(N)(=O)=O)cc2)cc1 (stereo not drawn) [4-[3-(4-methoxyphenyl)-5-[4-(trifluoromethyl)phenyl]-3,4-dihydropyrazol-2-yl]benzenesulfonamide]
- EC50: > 30 µM

SMILES: COc1ccc(C2CC(C)=NN2c2ccc(S(N)(=O)=O)cc2)cc1 (stereo not drawn) [4-[3-(4-methoxyphenyl)-5-methyl-3,4-dihydropyrazol-2-yl]benzenesulfonamide]
- EC50: > 30 µM

SMILES: COc1ccc(C2CC(c3ccsc3)=NN2c2ccc(S(N)(=O)=O)cc2)cc1 (stereo not drawn) [4-[3-(4-methoxyphenyl)-5-thiophen-3-yl-3,4-dihydropyrazol-2-yl]benzenesulfonamide]
- EC50: > 30 µM

SMILES: COc1ccc(C2CC(c3ccccc3Cl)=NN2c2ccc(S(N)(=O)=O)cc2)cc1 (stereo not drawn) [4-[5-(2-chlorophenyl)-3-(4-methoxyphenyl)-3,4-dihydropyrazol-2-yl]benzenesulfonamide]
- EC50: > 30 µM

SMILES: COc1ccc(C2CC(c3cccc(F)c3)=NN2c2ccc(S(N)(=O)=O)cc2)cc1 (stereo not drawn) [4-[5-(3-fluorophenyl)-3-(4-methoxyphenyl)-3,4-dihydropyrazol-2-yl]benzenesulfonamide]
- EC50: > 30 µM

SMILES: COc1ccc(C2CC(c3cccc(OC)c3)=NN2c2ccc(S(N)(=O)=O)cc2)cc1 (stereo not drawn) [4-[5-(3-methoxyphenyl)-3-(4-methoxyphenyl)-3,4-dihydropyrazol-2-yl]benzenesulfonamide]
- EC50: > 30 µM

SMILES: NS(=O)(=O)c1ccc(N2N=C(c3ccc(Br)cc3)CC2c2ccc(F)cc2)cc1 (stereo not drawn) [4-[5-(4-bromophenyl)-3-(4-fluorophenyl)-3,4-dihydropyrazol-2-yl]benzenesulfonamide]
- EC50: > 30 µM

SMILES: COc1ccc(C2CC(c3ccc(F)cc3)=NN2c2ccc(S(N)(=O)=O)cc2)cc1 (stereo not drawn) [4-[5-(4-fluorophenyl)-3-(4-methoxyphenyl)-3,4-dihydropyrazol-2-yl]benzenesulfonamide]
- EC50: > 30 µM

SMILES: COc1ccc(-c2cc(-c3ccccc3)nn2-c2ccc(S(N)(=O)=O)cc2)cc1 [4-[5-(4-methoxyphenyl)-3-phenylpyrazol-1-yl]benzenesulfonamide]
- EC50: > 30 µM

SMILES: COc1ccc(C2CC(C3CCCCC3)=NN2c2ccc(S(N)(=O)=O)cc2)cc1 (stereo not drawn) [4-[5-cyclohexyl-3-(4-methoxyphenyl)-3,4-dihydropyrazol-2-yl]benzenesulfonamide]
- EC50: > 30 µM

SMILES: O=S(=O)(c1ccc(N2N=C(c3ccc(Br)cc3)CC2c2ccccc2)cc1)C(F)F (stereo not drawn) [5-(4-bromophenyl)-2-[4-(difluoromethylsulfonyl)phenyl]-3-phenyl-3,4-dihydropyrazole]
- EC50: > 30 µM

SMILES: FC(F)(F)c1ccccc1C1CC(c2ccc(Br)cc2)=NN1c1ccccc1 (stereo not drawn) [5-(4-bromophenyl)-2-phenyl-3-[2-(trifluoromethyl)phenyl]-3,4-dihydropyrazole]
- EC50: > 30 µM

SMILES: O=[N+]([O-])c1cccc(C2C[C-](c3ccc(F)cc3)N=[N+]2c2ccccc2)c1 (stereo not drawn) [5-(4-fluorophenyl)-3-(3-nitrophenyl)-2-phenyl-3,4-dihydropyrazole]
- EC50: > 30 µM

SMILES: Cc1ccc(-c2cc(C(F)(F)F)nn2-c2ccc(S(N)(=O)=O)cc2)cc1 [Celecoxib]
- EC50: > 30 µM

SMILES: COc1ccc(C2CC(c3ccc(N(C)C)cc3)=NN2c2ccc(S(N)(=O)=O)cc2)cc1 (stereo not drawn) [KUC103422N]
- EC50: > 30 µM

SMILES: COc1ccc(C2CC(c3cccs3)=NN2c2ccc(S(N)(=O)=O)cc2)cc1 (stereo not drawn) [KUC103438N]
- EC50: > 30 µM

SMILES: NS(=O)(=O)c1ccc(N2N=C(c3ccccc3)CC2c2ccccc2Cl)cc1 (stereo not drawn) [KUC103446N]
- EC50: > 30 µM

SMILES: COc1ccc(C2CC(C(C)(C)C)=NN2c2ccc(S(N)(=O)=O)cc2)cc1 (stereo not drawn) [KUC103450N]
- EC50: > 30 µM

SMILES: COc1ccc(C2CC(c3ccccc3C(F)(F)F)=NN2c2ccc(S(N)(=O)=O)cc2)cc1 (stereo not drawn) [KUC103474N]
- EC50: > 30 µM

SMILES: Cc1ccccc1N1N=C(c2ccccc2)CC1c1ccc(N(C)C)cc1 (stereo not drawn) [N,N-dimethyl-4-[2-(2-methylphenyl)-5-phenyl-3,4-dihydropyrazol-3-yl]aniline]
- EC50: > 30 µM

SMILES: COc1ccc(C2CC(c3ccccc3)=NN2c2ccc(S(N)(=O)=O)cc2)cc1OC (stereo not drawn) [UNM-0000305823]
- EC50: > 30 µM

SMILES: COc1ccc(C2CC(c3ccc(Br)cc3)=NN2c2ccccc2Cl)cc1 (stereo not drawn) [UNM-0000305832]
- EC50: > 30 µM

SMILES: COc1ccc(C2=NN(c3ccccc3)C(c3ccc(Cl)cc3)C2)cc1 (stereo not drawn) [UNM-0000305833]
- EC50 (inactive by the depositor's call): 0.679 µM

SMILES: O=S(=O)(O)c1ccc(N2N=C(c3ccccc3)CC2c2ccccc2)cc1 (stereo not drawn) [UNM-0000305834]
- EC50: > 30 µM

SMILES: Cc1cccc(N2N=C(c3ccccc3)CC2c2ccccc2)c1 (stereo not drawn) [UNM-0000305835]
- EC50: > 30 µM

SMILES: O=[N+]([O-])c1ccc([N+]2=N[C-](c3ccccc3)CC2c2ccc(O)cc2)cc1 (stereo not drawn) [UNM-0000305838]
- EC50: > 30 µM

SMILES: CN(C)c1ccc(C2CC(c3ccc(Br)cc3)=NN2c2ccccc2)cc1 (stereo not drawn) [UNM-0000305846]
- EC50: > 30 µM

SMILES: CN(C)c1ccc(C2CC(c3ccc(Cl)cc3)=NN2c2ccccc2)cc1 (stereo not drawn) [UNM-0000305847]
- EC50: > 30 µM

SMILES: COc1ccc(C2=NN(c3ccccc3)C(c3ccc(OC)c(OC)c3C(=O)O)C2)cc1 (stereo not drawn) [UNM-0000305848]
- EC50: > 30 µM

SMILES: Cc1ccccc1[N+]1=N[C-](c2ccccc2)CC1c1cccc([N+](=O)[O-])c1 (stereo not drawn) [UNM-0000305854]
- EC50: > 30 µM

SMILES: COc1ccccc1N1N=C(c2ccccc2)CC1c1ccccc1 (stereo not drawn) [UNM-0000305855]
- EC50: 10.2 µM

SMILES: O=[N+]([O-])c1cccc(C2C[C-](c3ccccc3)N=[N+]2c2ccccc2)c1 (stereo not drawn) [UNM-0000305857]
- EC50: > 30 µM

SMILES: COc1ccc(C2CC(c3ccc(Cl)cc3)=NN2c2ccccc2)cc1OC (stereo not drawn) [UNM-0000305858]
- EC50: > 30 µM

SMILES: FC(F)(F)c1cccc(N2N=C(c3ccc(Cl)cc3)CC2c2ccccc2Cl)c1 (stereo not drawn) [UNM-0000305859]
- EC50: > 30 µM

SMILES: COc1ccc(C2=NN(c3ccccc3F)C(c3ccc(F)cc3)C2)cc1 (stereo not drawn) [UNM-0000305860]
- EC50: > 30 µM
